Source: publication PMC12059926, “Development and Biological Assessment of Thiazole-Based Pyridines for Targeted Therapy in Lung Cancer” (ACS Omega, 2025)
In brackets after ≈: the same amount, converted by molar mass.

Key:
caspase-3 in A549 cells = experiment: Caspase-3 activation; assay type: cell-based, human; conditions: 24 h
Description: Caspases can take part in the cell death mechanism through both intrinsic and extrinsic pathways, with caspase-3 being the first enzyme activated in the apoptosis process.[24] Activation of the caspase-3 enzyme by the compounds, indicated as caspase-3 positive, and inhibition, indicated as caspase-3 negative, are presented in percentage terms in Table 5.
A Spectrofluorometric Caspase-3 assay kit (BD Pharmingen, Franklin Lakes, NJ) was used for determining Caspase-3 activation by measuring the caspase-3 or DEVD-cleaving activity. Initially, A549 cells at a concentration of 1 × 10^6 cells/mL underwent a washing process using phosphate-buffered saline (PBS). Subsequently, they were suspended in a cold solution known as cell lysis buffer and kept on ice for a duration of 30 min. […] In each reaction, a mixture of […] of diluted Ac DEVD-AMC (a synthetic tetrapeptide fluorogenic substrate used to measure caspase-3 activity) and 0.2 mL of 1x HEPES buffer was added to a well. Then, […] of cell lysate was introduced into each well/reaction. The reaction mixtures were incubated at 37 °C for 1 h. The amount of AMC released from Ac-DEVD-AMC was measured by using a microplate reader (PerkinElmer/Victor/X3) with an excitation wavelength of 380 nm and an emission wavelength of 460 nm. Apoptotic cell lysates containing active caspase-3 produced significant emissions compared to controls. In addition, the AMC emission of nonapoptotic control cell lysates was taken as 100%, and the emission of other cell lysates was measured relative to the emission of control cells. All experiments were repeated in duplicate. Active compounds, which are the most cytotoxic compounds, were evaluated for caspase-3 activation using previously published procedures.[40],[44]
(§1) The apoptotic results (Annexin V-FITC, Caspase 3, JC-1) were evaluated by flow cytometry using FACS Diva Version 6.1.1. software, and the apoptotic cells were determined as the percentage of cells.

MMP-9 enzyme = biological target: T1, MMP-9 enzyme (Homo sapiens, UniProt P14780); experiment: MMP-9 enzyme inhibition, colorimetric kit; assay type: biochemical; conditions: for inhibition at 100 µM: compounds at 100 μM, mean ± SD
T1 construct: purchased Enzo Life Sciences Inc. (Farmingdale, NY, USA)
T1 sequence (P14780 107-444 limits assumed): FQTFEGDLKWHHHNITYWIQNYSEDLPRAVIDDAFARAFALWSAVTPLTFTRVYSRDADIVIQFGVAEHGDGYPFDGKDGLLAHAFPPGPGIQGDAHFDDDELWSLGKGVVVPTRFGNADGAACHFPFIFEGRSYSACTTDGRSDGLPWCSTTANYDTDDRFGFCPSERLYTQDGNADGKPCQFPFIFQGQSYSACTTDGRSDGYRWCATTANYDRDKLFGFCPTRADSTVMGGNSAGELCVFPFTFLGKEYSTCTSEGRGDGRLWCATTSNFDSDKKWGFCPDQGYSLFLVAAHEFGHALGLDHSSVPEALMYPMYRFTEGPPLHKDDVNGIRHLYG
Procedure: Compounds (2a–2o) were tested to determine their MMP-9 enzyme inhibition potential. The compounds were tested at a concentration of 100 μM, and the standard molecule NNGH at a concentration of 1.3 μM.
MMP-9 inhibition was assessed using a colorimetric kit from Enzo Life Sciences Inc. (Farmingdale, NY, USA), following procedures similar to those described in previous studies.[25],[26] A thiopeptide was used as a chromogenic substrate (Ac-PLG-[2-mercapto-4-methyl-pentanoyl]-LG-OC2H5). 2-Nitro-5-thiobenzoic acid, formed by the reaction of the sulfhydryl group produced as a result of hydrolysis of the thioester by the MMP-9 enzyme and then reaction with DTNB [5,5′-dithiobis(2-nitrobenzoic acid), Ellman’s reagent], gives absorbance at 412 nm in a microplate reader (BioTek, PowerWave, Gen5 software, Winooski, VT, USA). Based on these absorptions, MMP-9 inhibition concentrations were determined. The assays were performed in triplicate. NNGH (N-isobutyl-N-(4-methoxyphenylsulfonyl)glycyl hydroxamic acid) was used as a control inhibitor. Data were shown as mean ± SD. The inhibitor % remaining activity of MMPs was calculated using the following equation:
Inhibitor% activity remaining = (V inhibitor/V control) × 100.
The inhibition (percent) of MMPs was calculated using the following equation: [drawing 1]

[1] = system: A549 lung cancer cell line; experiment: MTT cytotoxicity assay on A549 lung cancer cells; assay type: cell-based, human; conditions: for IC50: Homo sapiens, A549 cells, MTT, mean ± SD; for SI: selectivity index: L929 versus A549
Procedure: (§2) The synthesized final compounds (2a–2o) were initially evaluated for their cytotoxic effects to assess their anticancer activity against A549 lung cancer cells. The healthy cell line L929 (mouse fibroblast cell line) was also used to determine the selective antiproliferative properties of the compounds.
(§3) The human lung cancer cell line A549 and mouse fibroblast cell line L929 were used to evaluate the cytotoxicity of the compounds. Cells propagated under the specified conditions were cultured in 96-well plates at 5 × 10^3 cells/well. […] At the end of the incubation period, cell viability was determined by measuring the absorbance of the purple color formed by the breakdown of the MTT dye at 540 nm. Half-maximal inhibitory concentrations (IC50) were determined based on the tested concentrations of the compounds. The tests were triplicated.[38] The MTT assay for cytotoxicity of compounds was determined according to previously published procedures.[39],[40]
(§4) The concentration that inhibits 50% of the cell population was calculated as IC50 using GraphPad Prism 9.0 statistical software program, and standard deviation values were analyzed. Data are expressed as mean ± SD. Comparisons were made using one-way ANOVA for continuous variables with normal distribution, and Tukey’s test was used for post hoc analysis of group differences. p < 0.05 was considered statistically significant.
(§5) The cell viability value of the control group was considered 100%, and all viability values were calculated using the formula below. The experiment was performed in 3 replicates. [drawing 2]

A549 cells [2] = experiment: Annexin V-FITC/propidium iodide apoptosis detection by flow cytometry; assay type: cell-based, human; conditions: IC50 dose, 24 h
Procedure: To determine whether the antiproliferative effects of the compounds on the A549 cell line proceed through the apoptotic or necrotic pathway, the assay was performed with Annexin V-FITC/propidium iodide dyes in a flow cytometry device. […] At least 10,000 cells were analyzed, and quadrant analysis was performed. The results are presented as early apoptotic cells, late apoptotic cells, viable cells, and necrotic cells in Table 3, and as a diagram in Figure 1. In control cells, the number of viable cells was 92.04%, necrotic cells were 1.16%, early apoptotic cells were 3.43%, and late apoptotic cells were 3.28%. […] Among the compounds, 2m was the most apoptosis-inducing compound, with 14.99% early apoptotic and 10.63% late apoptotic cell percentages. […] This compound was followed by compound 2c with a 13.79% early apoptotic cells and 4.03% late apoptotic cells. Among the compounds, compound 2o induced early apoptosis the least (1.87%) and necrosis the most (3.10%). […] Nonapoptotic cell death methods, such as necroptosis and pyroptosis, can be considered for the aforementioned compounds.
The compounds were treated with A549 cells at IC50 doses, and early and late apoptosis, necrosis, and viable cell ratios were determined as percentages. Cells were seeded at 37 °C in humidified air containing 5% CO2 with 10^5 cells/plate in each well. A549 cells were collected, washed twice with ice-cold PBS, and resuspended in 100 μL of binding buffer. Five μL (5 μg/mL) of Annexin V-FITC and PI were added to the cells and incubated for 15 min in the dark at room temperature (20–25 °C). Then, 400 μL of binding buffer was added to the mixture samples and analyzed on a flow cytometer. Quadrant analyses were also presented.[41] Compounds 2a, 2b, 2c, 2j, 2m, and 2o, with a satisfactory cytotoxic profile, were examined via flow cytometry to assess the apoptosis/necrosis cell ratio using previously published procedures.[42]
as §1

[3] = system: L929 (mouse fibroblast cell line); experiment: MTT cytotoxicity assay on L929 healthy cells; assay type: cell-based; conditions: mean ± SD
Procedure: as §2, §3, §4, §5

A549 cells [4] = experiment: Mitochondrial membrane potential (JC-1) by flow cytometry; assay type: cell-based, human; conditions: IC50 dose, JC-1
Description: The mitochondrial membrane potential provides information about the state of electrons during ATP production through oxidative phosphorylation, which is essential for cellular viability. Mitochondrial dysfunction occurs when this electrical regulation is disturbed and can occur in various diseases and the process of apoptosis.[23] […] Compounds 2m, 2g, and 2c followed this, with depolarization levels exceeding 21%. The mitochondrial dysfunction in compound 2m can be considered a contributing factor to apoptosis.
Cell staining with JC-1 was performed according to the manufacturer’s recommendations for the BD , Pharmingen Flow Cytometry Kit. […] Compounds were applied at IC50 doses of no more than 1 × 10^6/mL per well in 6-well plates. After treatment, each cell suspension was transferred to a 15 mL polystyrene centrifuge tube, the cells were centrifuged at 400g for 5 min, and the supernatant was removed. 0.5 mL of freshly prepared working solution was added to each pellet, and the solution was vortexed. The test cells were soaked in JC-1 working solution at 37 °C for 10–15 min, and the cells were washed twice. After centrifugation at 400g for 5 min, each cell pellet was suspended in 0.5 mL of 1X assay buffer and vortexed. The cells were then analyzed by flow cytometer.
as §1

inhibition at 100 µM (MMP-9 enzyme)	SMILES	% Caspase-3 negative cells (caspase-3 in A549 cells)	% Caspase-3 positive cells (caspase-3 in A549 cells)	IC50 [1]	Q1-LL viable cells (A549 cells [2])	Q1-LR early apoptotic cells (A549 cells [2])	Q1-UL necrotic cells (A549 cells [2])	Q1-UR late apoptotic cells (A549 cells [2])	IC50 [3]	% Mitochondrial membrane polarized cells (A549 cells [4])	MMP-9 inhibition, result in words (MMP-9 enzyme; compared with 2f)	SI: selectivity index [1]
23.1 ± 2.08%	C(=NNc1nc(-c2ccc(-c3ccccc3)cc2)cs1)c1ccccn1 [Compound 2c, 4-([1,1’-Biphenyl]-4-yl)-2-(2-(pyridin-2-ylmethylene)hydrazinyl)thiazole]	91.76%	5.95%	10.1 ± 0.38 µg/mL (≈ 28.4 µM)	81.54%	13.79%	0.64%	4.03%	125 ± 0.64 µg/mL (≈ 351 µM)	79.61%		
8.63 ± 1.32%	CS(=O)(=O)c1ccc(-c2csc(NN=Cc3cccnc3)n2)cc1 [Compound 2g, 4-(4-(Methylsulfonyl)phenyl)-2-(2-(pyridin-3-ylmethylene)hydrazinyl)thiazole]	73.16%	0.38%	8.4 ± 0.34 µg/mL (≈ 23.4 µM)	88.98%	7.20%	0.98%	2.84%	56.4 ± 0.59 µg/mL (≈ 157 µM)	76.68%		
	COc1ccc(OC)c(-c2csc(NN=Cc3ccncc3)n2)c1 [Compound 2k, 4-(2,5-Dimethoxyphenyl)-2-(2-(pyridin-4-ylmethylene)hydrazinyl)thiazole]			6.07 ± 0.31 µg/mL (≈ 17.8 µM)					8.59 ± 0.32 µg/mL (≈ 25.2 µM)		less active than 2f (2,5-dimethoxypehnyl) or inactive	1.42
9.4 ± 1.22%	C(=NNc1nc(-c2ccc(-c3ccccc3)cc2)cs1)c1ccncc1 [Compound 2m, 4-([1,1’-Biphenyl]-4-Yl)-2-(2-(pyridin-4-ylmethylene)hydrazinyl)thiazole]	69.82%	0.86%	12.1 ± 0.43 µg/mL (≈ 33.8 µM)	73.32%	14.99%	1.07%	10.63%	31.2 ± 0.55 µg/mL (≈ 87.7 µM)	75.72%		
19 ± 3.63%	Oc1ccc(-c2csc(NN=Cc3ccncc3)n2)cc1O [Compound 2n, 4-(2-(2-(Pyridin-4-ylmethylene)hydrazinyl)thiazol-4-yl)benzene-1,2-diol]			4.23 ± 0.54 µg/mL (≈ 13.5 µM)					4.48 ± 0.68 µg/mL (≈ 14.3 µM)			1.06
